Measurements taken from US20230039836A1, “AROMATIC SULPHONAMIDES DERIVATIVES THAT INHIBITS PDI A3, THEIR SYNTHESIS AND USE” (Uniwersytet Jagiellonski, priority 2020, published 2023).
Converted amounts (≈) assume the structure as drawn. “And” between values parts separate entries of the source, which are not always exact repeats. Equal entries are not always repeated. Where two headings read alike, the source gives them in different places.

Experiments:
PDI A1 = target: T1, PDI A1 (Homo sapiens, UniProt P07237); assay: Insulin turbidometric assay, inhibition of PDI A1; assay type: biochemical; settings: insulin reduction, turbidity at 650 nm, 60 min incubation at 37° C.; read-out: Inhibition of PDI A1 (EC 50)
T1 construct: purchased Mybiosource; host or cells: E. coli
T1 sequence (P07237 18-508, species assumed): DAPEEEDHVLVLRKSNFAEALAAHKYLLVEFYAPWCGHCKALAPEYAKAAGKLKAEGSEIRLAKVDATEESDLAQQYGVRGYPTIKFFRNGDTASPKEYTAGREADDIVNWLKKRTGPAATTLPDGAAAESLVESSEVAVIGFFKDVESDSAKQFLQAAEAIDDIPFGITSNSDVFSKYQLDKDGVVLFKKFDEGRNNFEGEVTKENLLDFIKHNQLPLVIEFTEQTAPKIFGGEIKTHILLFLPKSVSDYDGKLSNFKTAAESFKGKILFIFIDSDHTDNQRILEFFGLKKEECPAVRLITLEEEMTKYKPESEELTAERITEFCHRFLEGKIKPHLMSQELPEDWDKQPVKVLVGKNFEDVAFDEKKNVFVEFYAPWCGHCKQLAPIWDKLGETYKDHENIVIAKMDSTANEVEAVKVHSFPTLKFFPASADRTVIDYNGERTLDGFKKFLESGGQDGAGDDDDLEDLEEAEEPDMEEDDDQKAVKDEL
In short: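 E. coli-expressed recombinant PDIA1 (10 ug/ml) preincubated with compound 60 min at 37 °C in phosphate buffer pH 7.6, 1 mM EDTA, DTT. Reaction started with insulin (0.15 mM final) and DTT (0.174 mM final). Insulin-reduction turbidity recorded at 650 nm over 120 s against PDI-free reference.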

MCF-7 = assay: Sulforhodamine B antiproliferative assay, 72 h, normal and hypoxia; assay type: cell-based, human; settings: Homo sapiens, MCF7, 72-hour exposition
Description: (§1) Anticancer activity of PDI A1-inhibitors has been also tested in vitro in antiproliferative essay in normoxic and hypoxic conditions as well in estrogen-stimulated cancer cells. In the experiment, cells were seeded on 96-well plates (Sarstedt, Germany) in appropriate culture medium at a density of 10^5 cells/mL 24 h before adding the tested compounds. Cells were treated with each compound in four concentrations in the range 0.1-100 ug/mL. […] After 72 h of compound treatment at 37° C., 5 % CO2 humid atmosphere and in wo different oxygen level conditions: 21% - normal and <1% - hypoxia. In some experiments, the MDA-MB-231 and MCF-7 cells were seeded with or without 200 nM estradiol and after 24 h the tested compounds were added. A previously described sulforhodamine B antiproliferative assay was used with minor modifications (Skehan P et al., 1990). Briefly, cells were fixed with 50 µL/well of 50% (w/v) trichloroacetic acid (Avantor Performance Materials, Gliwice, Poland). After 1 h incubation, plates were washed several times with tap water and 50 µL of 0.4% (w/v) solution of sulforhodamine B (Sigma-Aldrich, Germany) in 1% (v/v) acetic acid (Avantor Performance Materials, Gliwice, Poland) was added to each well. After 30 min incubation at room temperature, unbound dye was washed out with 1% (v/v) acetic acid, whereas bound dye was solubilized with 10 mM unbuffered TRIS (Avantor Performance Materials, Gliwice, Poland) solution. The entire procedure was performed using a BioTek EL-406 washing station (BioTek Instruments, USA). After additional 30 min, absorbance was read using a Biotek Hybrid H4 reader (BioTek Instruments, USA) at 540 nm wavelength. MTT assay was used alternatively for HL-60 cell line and in the experiment in which estrogens are added (specified in the table legend). Absorbance was measured using a Biotek Hybrid H4 reader at 570 nm wavelength for MTT assay.
(§2) Compounds at each concentration were tested in triplicate in a single experiment and each experiment was repeated at least three times independently.
(§3) Results of in vitro antiproliferative effects are shown in Table 3 and Table 4 and are presented as mean IC50 ± SD calculated using the Prolab-3 system based on Cheburator 0.4 software.

MDA-MB-231 = assay: as above; assay type: cell-based, human; settings: Homo sapiens, MDA-MB-231, 72-hour exposition
Description: as §1, §2, §3

Caco-2 = assay: Sulforhodamine B antiproliferative assay, 72 h; assay type: cell-based, human; settings: Homo sapiens, Caco-2; normal (21% of oxygen), 72-hour exposition
Description: In the experiment, cells were seeded on 96-well plates (Sarstedt, Germany) in appropriate culture medium at a density of 10^5 cells/mL 24 h before adding the tested compounds. Cells were treated with each compound in four concentrations in the range 0.1-100 ug/mL. […] Briefly, cells were fixed with 50 µL/well of 50% (w/v) trichloroacetic acid (Avantor Performance Materials, Gliwice, Poland). After 1 h incubation, plates were washed several times with tap water and 50 µL of 0.4% (w/v) solution of sulforhodamine B (Sigma-Aldrich, Germany) in 1% (v/v) acetic acid (Avantor Performance Materials, Gliwice, Poland) was added to each well. After 30 min incubation at room temperature, unbound dye was washed out with 1% (v/v) acetic acid, whereas bound dye was solubilized with 10 mM unbuffered TRIS (Avantor Performance Materials, Gliwice, Poland) solution. […] After additional 30 min, absorbance was read using a Biotek Hybrid H4 reader (BioTek Instruments, USA) at 540 nm wavelength.

HT-29 = assay: Sulforhodamine B antiproliferative assay, 72 h; assay type: cell-based, human; settings: Homo sapiens, HT-29; normal (21% of oxygen), 72-hour exposition
Description: as §1, §2, §3

[1] = test system: Lewis Lung Carcinoma (LLC); assay: Murine model of Lewis Lung Carcinoma; assay type: in vivo, mice; settings: for Tumor volume average±stdev, day 10 / Tumor volume average±stdev, day 12 / Tumor volume average±stdev, day 14 / Tumor volume average±stdev, day 16 / Tumor volume average±stdev, day 17 / Individual tumor volumes, day 10 / Individual tumor volumes, day 12 / Individual tumor volumes, day 14 / Individual tumor volumes, day 16 / Individual tumor volumes, day 17: C57BL/6 mice, LLC s.c.; for Tumor volume average±stdev, day 10 / Tumor volume average±stdev, day 12 / Tumor volume average±stdev, day 14 / Tumor volume average±stdev, day 16 / Tumor volume average±stdev, day 17: 5 animals; for Individual tumor volumes, day 10 / Individual tumor volumes, day 12 / Individual tumor volumes, day 14 / Individual tumor volumes, day 16 / Individual tumor volumes, day 17: single animals; for Anti-cancer activity in vivo: LLC model, Tables 6 and 7
Description: To confirm anticancer activity of selected compounds of invention, PDI A1-inhibitors in vivo, selected compounds of invention were tested in the murine model of Lewis Lung Carcinoma (LLC). The Lewis Lung Carcinoma (LLC) cell line was obtained from the ATCC collection and was cultured in a humidified atmosphere of 5% CO2 at 37° using Dulbecco’s modified Eagle’s medium (DMEM) that contained 10% bovine serum (Sigma). Female (6-8 weeks old) C57BL/6 mice (purchased from Envigo RMS. BV., Nederland) were acclimated for one week and were fed with animal chow and water ad libitum. The C57BL/6 mice were injected s.c. with 0.5 × 10^5 LLC cells per mice in 100 µL PBS. Compounds were dissolved in DMSO and then 0.9% NaCl (DMSO final concentration 1%) were added. In each treatment group, i.p. injections of 100 µl compound were started on 1 day after tumor inoculation. Control animals injected with equal volume of 0.9% NaCl with 1% DMSO administered in the same schedule as other groups. Tumor larger radius (a) and smaller radius (b) were measured by calipers. The tumor volume (Tv) was calculated according the following formulaTv = V=4 • ab2/3. The mice in control group were sacrificed 17 days after tumor establishment. Tumor tissues were dissected, weighed and frozen in OCT compound.

[2] = test system: arterial thrombosis, right common carotid artery; assay: Rat model of arterial thrombosis; assay type: in vivo; settings: Wistar rats, FIG. 6, dose as low as
Description: To confirm antithrombotic activity of compounds of invention, inhibitors of PDIA1, pharmacological activity of selected compounds was tested in vivo in the rat model of arterial thrombosis . Wistar rats were anaesthetized with pentobarbital (40 mg/kg, i.p.) and placed in a supine position on a heated (37° C.) operating table. Arterial thrombosis was induced by electrical stimulation of the right common carotid artery, as previously described (Kramkowski et al., 2012). Briefly, the anode, a stainless steel L-shaped wire, was inserted under the artery and connected to a constant current generator. The cathode was attached subcutaneously to the hind limb. The artery was stimulated (1 mA) for 10 min. Fifty-five minutes after the beginning of stimulation, the segment of the common carotid artery containing the formed thrombus was dissected and opened lengthwise, and the thrombus was completely removed and air-dried at room temperature for 24 h. Thrombus was then weighed in a blinded manner.

[3] = hypoxia (<1% of oxygen), read-out: IC50 [µg/ml] MCF-7 hypoxia
[4] = normal (21% of oxygen), read-out: IC50 [µg/ml] MCF-7 normal
[5] = hypoxia (<1% of oxygen), read-out: IC50 [µg/ml] MDA-MB-231 hypoxia
[6] = normal (21% of oxygen), read-out: IC50 [µg/ml] MDA-MB-231 normal

COC(=O)C1CN1S(=O)(=O)c1ccc(C)cc1 (stereo not drawn) [Compound C-3161, Methyl 1-(p-tolylsulfonyl)aziridine-2-carboxylate]
EC50 (PDI A1): 5 µM
IC50 (MCF-7; [3]): 3.6 ± 0.3 µg/mL (≈ 14.1 µM)
IC50 (MCF-7; [4]): 3.6 ± 0.3 µg/mL (≈ 14.1 µM)
IC50 (MDA-MB-231; [5]): 11.3 ± 10.6 µg/mL (≈ 44.3 µM)
IC50 (MDA-MB-231; [6]): 9.9 ± 8.2 µg/mL (≈ 38.8 µM)
IC50 (Caco-2): 3.5 ± 0.3 µg/mL (≈ 13.7 µM)
IC50 (HT-29): 28.4 ± 5 µg/mL (≈ 111 µM)
Tumor volume average±stdev, day 10 ([1]; 50 mg/kg i.p.): 105±144 mm3
Tumor volume average±stdev, day 12 ([1]; 50 mg/kg i.p.): 172±240 mm3
Tumor volume average±stdev, day 14 ([1]; 50 mg/kg i.p.): 345±377 mm3
Tumor volume average±stdev, day 16 ([1]; 50 mg/kg i.p.): 380±446 mm3
Tumor volume average±stdev, day 17 ([1]; 50 mg/kg i.p.): 368±393 mm3
Individual tumor volumes, day 10 ([1]; 50 mg/kg i.p., 50 mg/kg): 258 mm3 and 0 mm3 (3×) and 266 mm3
Individual tumor volumes, day 12 ([1]; 50 mg/kg i.p., 50 mg/kg): 496 mm3 and 0 mm3 (3×) and 365 mm3
Individual tumor volumes, day 14 ([1]; 50 mg/kg i.p., 50 mg/kg): 829 mm3 and 254 mm3 and 0 mm3 (2×) and 642 mm3
Individual tumor volumes, day 16 ([1]; 50 mg/kg i.p., 50 mg/kg): 980 mm3 and 199 mm3 and 0 mm3 (2×) and 719 mm3
Individual tumor volumes, day 17 ([1]; 50 mg/kg i.p., 50 mg/kg): 946 mm3 and 476 mm3 and 0 mm3 (2×) and 419 mm3
Anti-cancer activity in vivo [1]: possess anti-cancer activity in vivo

CCCCc1ccc(S(=O)(=O)N2CC2C(=O)OC)cc1 (stereo not drawn) [Compound C-3257, Methyl 1-(4-butylphenyl)sulfonylaziridine-2-carboxylate]
IC50 (MCF-7; [3]): 17.1 ± 7.4 µg/mL (≈ 57.5 µM)
IC50 (MCF-7; [4]): 20.8 ± 6.6 µg/mL (≈ 69.9 µM)
IC50 (MDA-MB-231; [5]): 13.5 ± 4 µg/mL (≈ 45.4 µM)
IC50 (MDA-MB-231; [6]): 9.9 ± 2.8 µg/mL (≈ 33.3 µM)
IC50 (Caco-2): 9.8 ± 3.8 µg/mL (≈ 33 µM)
IC50 (HT-29): 23.8 ± 4.8 µg/mL (≈ 80 µM)
Tumor volume average±stdev, day 10 ([1]; 75 mg/kg i.p.): 66±147 mm3
Tumor volume average±stdev, day 12 ([1]; 75 mg/kg i.p.): 208±287 mm3
Tumor volume average±stdev, day 14 ([1]; 75 mg/kg i.p.): 462±264 mm3
Tumor volume average±stdev, day 16 ([1]; 75 mg/kg i.p.): 686±108 mm3
Tumor volume average±stdev, day 17 ([1]; 75 mg/kg i.p.): 1097±482 mm3
Individual tumor volumes, day 10 ([1]; 75 mg/kg i.p., 75 mg/kg): 0 mm3 (4×) and 329 mm3
Individual tumor volumes, day 12 ([1]; 75 mg/kg i.p., 75 mg/kg): 572 mm3 and 0 mm3 (3×) and 468 mm3
Individual tumor volumes, day 14 ([1]; 75 mg/kg i.p., 75 mg/kg): 594 mm3 and 0 mm3 and 537 mm3 and 657 mm3 and 523 mm3
Individual tumor volumes, day 16 ([1]; 75 mg/kg i.p., 75 mg/kg): 794 mm3 and 548 mm3 and 601 mm3 and 772 mm3 and 717 mm3
Individual tumor volumes, day 17 ([1]; 75 mg/kg i.p., 75 mg/kg): 674 mm3 and 882 mm3 and 1016 mm3 (2×) and 986 mm3
Anti-cancer activity in vivo [1]: possess anti-cancer activity in vivo
Dose at which effect on thrombus formation was significant and pronounced [2]: 0.03 µmol/kg
